Where a SMILES comes first, the peptide text is derived from it. [ ]: non-standard residue; d: D form. The star is where a group is joined. NHCH2CH2OH = OCCN*; For = O=C*

Data set [1] concerns Streptococcus pyogenes SSI-9. As to the kind of experiment: Antibacterial activity assay of bead-derived peptides (three concentrations). The data set is classed as cell-based. Further details: key: +++: inhibition by the 640-fold diluted peptide solution; ++: inhibition by the 160-fold diluted solution; +: inhibition by the 40-fold diluted solution; -: no inhibition. To be noted: S. pyogenes, bead-derived peptide solution, three concentrations. The gist of the method: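 Bead-derived library peptide stocks in DMSO were tested undiluted and after 4- and 16-fold DMSO dilution against S. pyogenes SSI-9 (2 × 10^5 CFU/well) in cation-adjusted Mueller Hinton Broth with 5% laked horse blood. After 18 h at 37 °C, wells were scored for precipitation of grown cells.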

The conditions of data set [2]: cell viability/%. The procedure, abridged: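 First, library peptide stocks are diluted 250-fold in RPMI1640 with 10% heat-inactivated FBS. Next, they are mixed with P388 cells to give 1 × 10^4 cells/mL and incubated 92 h at 37 °C, 5% CO2. Finally, viability (%) is scored by WST-1 absorbance at 415 nm.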
Data set [3] in a line: H+/Na+ transport assay of bead-derived peptides (one-point).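 Also: relative to parent gramicidin A activity set to 1.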 The data set is classed as biochemical. Also on record: key: relative activity; mean of two control wells = 1.00. As to conditions: bead-derived peptide solution, EYPC/EYPG LUVs. The gist of the method:
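One-point screen: peptide + pyranine-loaded LUVs, 30 min RT with vortexing, 96-well. Read-out is fluorescence intensity scaled as 100 × (Ix – I0)/(Imax – I0). Imax from Triton X-100, I0 from untreated vesicles, and the mean of the two control wells is set to 1.00.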

Take `CC(C)C[C@@H](NC(=O)[C@H](Cc1c[nH]c2ccccc12)NC(=O)[C@H](NC(=O)[C@@H](NC(=O)[C@H](NC(=O)[C@H](C)NC(=O)[C@H](NC(=O)[C@H](C)NC(=O)CNC(=O)[C@@H](NC=O)C(C)C)C(C)C)C(C)C)C(C)C)[C@H](C)O)C(=O)N[C@@H](Cc1c[nH]c2ccccc12)C(=O)N[C@H](CC(C)C)C(=O)N[C@@H](Cc1c[nH]c2ccccc12)C(=O)N[C@@H](C(=O)N[C@@H](Cc1c[nH]c2ccccc12)C(=O)NCCO)C(C)C` [compound 1523] (For-VGA[dV]A[dV]V[dT]W[dL]W[dL]W[dV]W-NHCH2CH2OH): the antibacterial activity result in data set [1] is reported as “+”. In addition, the viability in data set [2] was 100%. Also, the “H+/Na+ transport activity normalized against the value of 1 (1.00)” value (“H+/Na+ transport activity normalized” below) in data set [3] amounted to 1.04.

Consider `CC(C)C[C@@H](NC(=O)[C@H](C)NC(=O)CNC(=O)[C@@H](NC=O)C(C)C)C(=O)N[C@@H](C)C(=O)N[C@@H](C(=O)N[C@H](C(=O)N[C@@H](C(=O)N[C@@H](Cc1c[nH]c2ccccc12)C(=O)N[C@@H](C(=O)N[C@@H](Cc1c[nH]c2ccccc12)C(=O)N[C@H](CC(C)C)C(=O)N[C@@H](Cc1c[nH]c2ccccc12)C(=O)N[C@H](CC(C)C)C(=O)N[C@@H](Cc1c[nH]c2ccccc12)C(=O)NCCO)[C@H](C)O)C(C)C)C(C)C)[C@H](C)O` [compound 1592] (For-VGA[dL]A[dT]V[dV]W[dT]W[dL]W[dL]W-NHCH2CH2OH), for which, in data set [1], the antibacterial activity entry is reported as “-”. This molecule also returned a viability in data set [2] of 100%. In data set [3], the “H+/Na+ transport activity normalized” value is reported as 1.03.

`CC(C)C[C@@H](NC(=O)[C@H](C)NC(=O)CNC(=O)[C@@H](NC=O)C(C)C)C(=O)N[C@@H](C)C(=O)N[C@H](CC(C)C)C(=O)N[C@H](C(=O)N[C@@H](C(=O)N[C@@H](Cc1c[nH]c2ccccc12)C(=O)N[C@@H](C(=O)N[C@@H](Cc1c[nH]c2ccccc12)C(=O)N[C@H](CC(C)C)C(=O)N[C@@H](Cc1c[nH]c2ccccc12)C(=O)N[C@H](CC(C)C)C(=O)N[C@@H](Cc1c[nH]c2ccccc12)C(=O)NCCO)C(C)C)[C@H](C)O)C(C)C` [compound 1631] (For-VGA[dL]A[dL]V[dT]W[dV]W[dL]W[dL]W-NHCH2CH2OH): the antibacterial activity entry in data set [1] is “-”. Moreover, the viability in data set [2] was 100%. Further, the “H+/Na+ transport activity normalized” value in data set [3] was 1.04.

On to `CC(C)C[C@@H](NC(=O)[C@H](C)NC(=O)CNC(=O)[C@@H](NC=O)C(C)C)C(=O)N[C@@H](C)C(=O)N[C@@H](C(=O)N[C@H](C(=O)N[C@@H](C(=O)N[C@@H](Cc1c[nH]c2ccccc12)C(=O)N[C@H](CC(C)C)C(=O)N[C@@H](Cc1c[nH]c2ccccc12)C(=O)N[C@@H](C(=O)N[C@@H](Cc1c[nH]c2ccccc12)C(=O)N[C@H](CC(C)C)C(=O)N[C@@H](Cc1c[nH]c2ccccc12)C(=O)NCCO)C(C)C)[C@H](C)O)C(C)C)C(C)C` [compound 1711] (For-VGA[dL]A[dV]V[dT]W[dL]W[dV]W[dL]W-NHCH2CH2OH), for which the antibacterial activity entry in data set [1] is listed as “-”. The molecule further yielded a viability in data set [2] of 100%. Further, the “H+/Na+ transport activity normalized” value in data set [3] was determined as 1.01.

For `CC(C)C[C@@H](NC(=O)[C@H](C)NC(=O)CNC(=O)[C@@H](NC=O)C(C)C)C(=O)N[C@@H](C)C(=O)N[C@H](CC(C)C)C(=O)N[C@H](C(=O)N[C@@H](C(=O)N[C@@H](Cc1c[nH]c2ccccc12)C(=O)N[C@H](CC(C)C)C(=O)N[C@@H](Cc1c[nH]c2ccccc12)C(=O)N[C@H](CC(C)C)C(=O)N[C@@H](Cc1c[nH]c2ccccc12)C(=O)N[C@@H](C(=O)N[C@@H](Cc1c[nH]c2ccccc12)C(=O)NCCO)C(C)C)C(C)C)C(C)C` [compound 1796] (For-VGA[dL]A[dL]V[dV]W[dL]W[dL]W[dV]W-NHCH2CH2OH), in data set [1], the antibacterial activity entry is recorded as “-”. In data set [2], this molecule came in with a viability of 0%. In data set [3], the “H+/Na+ transport activity normalized” value worked out at 1.09.

Consider `CC(C)C[C@@H](NC(=O)[C@H](C)NC(=O)CNC(=O)[C@@H](NC=O)C(C)C)C(=O)N[C@@H](C)C(=O)N[C@@H](C(=O)N[C@H](C(=O)N[C@@H](C(=O)N[C@@H](Cc1c[nH]c2ccccc12)C(=O)N[C@H](CC(C)C)C(=O)N[C@@H](Cc1c[nH]c2ccccc12)C(=O)N[C@H](CC(C)C)C(=O)N[C@@H](Cc1c[nH]c2ccccc12)C(=O)N[C@H](CC(C)C)C(=O)N[C@@H](Cc1c[nH]c2ccccc12)C(=O)NCCO)[C@H](C)O)C(C)C)C(C)C` [compound 1819] (For-VGA[dL]A[dV]V[dT]W[dL]W[dL]W[dL]W-NHCH2CH2OH), for which the antibacterial activity result in data set [1] was “+”. The molecule further came in with a viability in data set [2] of 100%. For the same molecule, in data set [3], the “H+/Na+ transport activity normalized” value is 1.22.

Turning to `CC(C)C[C@@H](NC(=O)[C@H](C)NC(=O)[C@H](NC(=O)[C@H](C)NC(=O)CNC(=O)[C@@H](NC=O)C(C)C)[C@H](C)O)C(=O)N[C@H](C(=O)N[C@H](CC(C)C)C(=O)N[C@@H](Cc1c[nH]c2ccccc12)C(=O)N[C@@H](C(=O)N[C@@H](Cc1c[nH]c2ccccc12)C(=O)N[C@@H](C(=O)N[C@@H](Cc1c[nH]c2ccccc12)C(=O)N[C@@H](C(=O)N[C@@H](Cc1c[nH]c2ccccc12)C(=O)NCCO)C(C)C)C(C)C)C(C)C)C(C)C` [compound 1842] (For-VGA[dT]A[dL]V[dL]W[dV]W[dV]W[dV]W-NHCH2CH2OH), in data set [1], the antibacterial activity entry is reported as “-”. In data set [2], this molecule showed a viability of 100%. Besides, in data set [3], the “H+/Na+ transport activity normalized” value stood at 1.26.

On to `CC(C)C[C@@H](NC(=O)[C@H](C)NC(=O)CNC(=O)[C@@H](NC=O)C(C)C)C(=O)N[C@@H](C)C(=O)N[C@H](CC(C)C)C(=O)N[C@H](C(=O)N[C@H](CC(C)C)C(=O)N[C@@H](Cc1c[nH]c2ccccc12)C(=O)N[C@H](CC(C)C)C(=O)N[C@@H](Cc1c[nH]c2ccccc12)C(=O)N[C@@H](C(=O)N[C@@H](Cc1c[nH]c2ccccc12)C(=O)N[C@H](CC(C)C)C(=O)N[C@@H](Cc1c[nH]c2ccccc12)C(=O)NCCO)[C@H](C)O)C(C)C` [compound 1888] (For-VGA[dL]A[dL]V[dL]W[dL]W[dT]W[dL]W-NHCH2CH2OH), for which the antibacterial activity entry in data set [1] is recorded as “-”. Besides, the viability in data set [2] was 100%. Moreover, in data set [3], the “H+/Na+ transport activity normalized” value is on record as 1.16.

Consider `CC(C)C[C@@H](NC(=O)[C@H](C)NC(=O)CNC(=O)[C@@H](NC=O)C(C)C)C(=O)N[C@@H](C)C(=O)N[C@@H](C(=O)N[C@H](C(=O)N[C@H](CC(C)C)C(=O)N[C@@H](Cc1c[nH]c2ccccc12)C(=O)N[C@H](CC(C)C)C(=O)N[C@@H](Cc1c[nH]c2ccccc12)C(=O)N[C@@H](C(=O)N[C@@H](Cc1c[nH]c2ccccc12)C(=O)N[C@@H](C(=O)N[C@@H](Cc1c[nH]c2ccccc12)C(=O)NCCO)C(C)C)C(C)C)C(C)C)[C@H](C)O` [compound 1898] (For-VGA[dL]A[dT]V[dL]W[dL]W[dV]W[dV]W-NHCH2CH2OH), for which, in data set [1], the antibacterial activity result is “-”. Moreover, the viability in data set [2] amounted to 100%. Further, the “H+/Na+ transport activity normalized” value in data set [3] is 1.07.

Consider `CC(C)C[C@@H](NC(=O)[C@H](C)NC(=O)CNC(=O)[C@@H](NC=O)C(C)C)C(=O)N[C@@H](C)C(=O)N[C@@H](C(=O)N[C@H](C(=O)N[C@H](CC(C)C)C(=O)N[C@@H](Cc1c[nH]c2ccccc12)C(=O)N[C@H](CC(C)C)C(=O)N[C@@H](Cc1c[nH]c2ccccc12)C(=O)N[C@H](CC(C)C)C(=O)N[C@@H](Cc1c[nH]c2ccccc12)C(=O)N[C@@H](C(=O)N[C@@H](Cc1c[nH]c2ccccc12)C(=O)NCCO)[C@H](C)O)C(C)C)C(C)C` [compound 1975] (For-VGA[dL]A[dV]V[dL]W[dL]W[dL]W[dT]W-NHCH2CH2OH), for which the antibacterial activity entry in data set [1] is “+”. The same molecule registered a viability in data set [2] of 100%. Also, the “H+/Na+ transport activity normalized” value in data set [3] amounted to 1.04.

Consider `CC(C)[C@H](NC=O)C(=O)NCC(=O)N[C@@H](C)C(=O)N[C@@H](C(=O)N[C@@H](C)C(=O)N[C@@H](C(=O)N[C@H](C(=O)N[C@@H](C(=O)N[C@@H](Cc1c[nH]c2ccccc12)C(=O)N[C@@H](C(=O)N[C@@H](Cc1c[nH]c2ccccc12)C(=O)N[C@@H](C(=O)N[C@@H](Cc1c[nH]c2ccccc12)C(=O)N[C@@H](C(=O)N[C@@H](Cc1c[nH]c2ccccc12)C(=O)NCCO)[C@H](C)O)C(C)C)C(C)C)C(C)C)C(C)C)C(C)C)C(C)C` [compound 1983] (For-VGA[dV]A[dV]V[dV]W[dV]W[dV]W[dT]W-NHCH2CH2OH), for which, in data set [1], the antibacterial activity entry is listed as “-”. This molecule also showed a viability in data set [2] of 100%. For the same molecule, the “H+/Na+ transport activity normalized” value in data set [3] is reported as 1.00.

With `CC(C)C[C@@H](NC(=O)[C@H](Cc1c[nH]c2ccccc12)NC(=O)[C@H](NC(=O)[C@H](Cc1c[nH]c2ccccc12)NC(=O)[C@H](NC(=O)[C@@H](NC(=O)[C@H](NC(=O)[C@H](C)NC(=O)[C@H](NC(=O)[C@H](C)NC(=O)CNC(=O)[C@@H](NC=O)C(C)C)C(C)C)C(C)C)C(C)C)C(C)C)[C@H](C)O)C(=O)N[C@@H](Cc1c[nH]c2ccccc12)C(=O)N[C@@H](C(=O)N[C@@H](Cc1c[nH]c2ccccc12)C(=O)NCCO)C(C)C` [compound 2066] (For-VGA[dV]A[dV]V[dV]W[dT]W[dL]W[dV]W-NHCH2CH2OH), the antibacterial activity entry in data set [1] is recorded as “-”. For the same molecule, the viability in data set [2] came out at 100%. For the same molecule, the “H+/Na+ transport activity normalized” value in data set [3] worked out at 1.07.

Values taken from article PMC7531004, “Discovery of gramicidin A analogues with altered activities by multidimensional screening of a one-bead-one-compound library” (Nature Communications, 2020).
